Test results from patent US8552053B2, “7-substituted indirubin-3′oximes and their applications” (Centre National de la Recherche Scientifique, priority 2005, dated 2013).
Where two headings read alike, the source gives them in different places.

Tests used:
[1] = tested on: SH-SY5Y cells differentiated by retinoic acid; test: Viability of RA-differentiated versus proliferating SH-SY5Y cells, MTS; format: cell-based, human; details: 24 h; 7BIO 25 μM, STS 1 μM
p53 = p53 expression, Western blotting; details: SH-SY5Y cells, 12.5 μM
cytochome C release = test: Cytochrome C release from mitochondria; details: 12.5 μM, 10 h
SH-SY5Y cells [2] = test: SH-SY5Y cell death, LDH release assay; format: cell-based, human; details: IO, 5BIO, 6BIO, 7BIO compared (FIG. 3B)
Protocol: In addition, cell death was estimated 48 h after the addition of each indirubin (25 μM) using the LDH release assay. As MTS reduction is occasionally observed under conditions different from cell death, an independent cell death evaluation procedure was used, the lactate dehydrogenase (LDH) release assay. This assay confirmed the induction of cell death by the indirubins of the invention, despite their overall lack of effects on CDKs and GSK-3.

[3] = tested on: effector caspase activity (DEVDase); test: Caspase (DEVDase) assay in SH-SY5Y cells; format: cell-based, human; details: 24 h dose-response; time course at 25 μM
Protocol: The value of control untreated cells is placed at time 0. DEVDase activity was measured as arbitrary fluorescence units. Every point is the mean±s.e. of at least three independent determinations. (B). […] Every point is the mean±s.e. of at least three independent determinations.
(§1) The measurement of caspase activity is based on determining the fluorescence released from the AcDEVDafc synthetic substrate after its direct addition to the culture medium, detergent lysis, and incubation at 37°. This method is devised to be applied to 96 multiwell plates. It allows kinetic determinations of caspase activation and the characterization of multiple drugs simultaneously. (Ribas et al., 2005).

[4] = tested on: wild-type HCT-116 and HCT-116 sub-clones deprived of p53; test: Survival of wild-type and p53-deprived HCT-116 cells, MTS; format: cell-based, human; details: 24 h
Protocol: Average±s.e. of three determinations. HCT116 human adenocarcinoma cell line were obtained from Dr. Vogelstein (The Howard Hughes Medical Institute, Sidney Kimmel Comprehensive Cancer Center, The Johns Hopkins School of Medicine, Baltimore, Md. 21231, USA). HCT116 cells were cultured in McCoy's 5A (Biowhittaker) supplemented with antibiotics and 10% FCS. General culture conditions were an atmosphere of 5% CO2 and a temperature of 37° C. Culture dishes and other plastic disposable tools were supplied by Corning (Corning, N.Y., USA). Indirubin treatments were performed on exponentially growing cultures at the indicated time and concentrations. Control experiments were carried also using appropriate dilutions of DMSO.

SH-SY5Y cells [5] = test: DNA laddering (internucleosomal fragmentation); format: cell-based, human; details: 25 μM, 24 h
Protocol: (§2) Cell death characterization based on nuclear morphology was assessed by double staining with 0.05 μg/ml bisBenzimide and 25 μg/ml propidium iodide. Cell viability was determined by means of the MTS method. Both procedures have been previously described in detail (Ribas and Boix, 2004). For evaluation of DNA laddering, cell DNA was extracted and electrophoresed in 1.5% agarose gels to evidence the internucleosomal fragmentation typical of apoptosis.

[6] = tested on: IMR-5, IMR-32, HL-60 and Jurkat cells; test: Viability of IMR-5, IMR-32, HL-60 and Jurkat cells, MTS; format: cell-based, human; details: 24 h
Protocol: FIG. 15. […] Every point is the mean±s.e. of three independent experiments with six independent measurements per experiment. […] SH-SY5Y, IMR-5 and IMR-32 human neuroblastoma cell lines were grown in DMEM medium from (Biowhittaker) plus 2 mM L-glutamine from Eurobio (Courtaboeuf, France) or DMEM already supplemented with 2 mM L-glutamine (Invitrogen, Barcelona, Spain), plus antibiotics and a 10% volume of FCS (Invitrogen, Cergy Pontoise, France or Barcelona, Spain). SH-SY5Y cell lines permanently transfected with pcDNA3/Bcl-2, pcDNA3/Bcl-XL and empty pcDNA3 vectors were grown like their untransfected counterparts. However, Geneticin (G-418) selection was maintained in the growing cultures before the terminal experiments (Ribas and Boix, 2004). […] HL-60 and Jurkat cells were grown in RPMI 1640 medium with 10% FCS and antibiotics from Invitrogen (Barcelona, Spain).

[7] = tested on: SH-SY5Y cells transfected with pcDNA3/Bcl-2 or pcDNA3/Bcl-XL; test: Viability of Bcl-2 / Bcl-XL overexpressing SH-SY5Y cells, MTS; format: cell-based, human; details: 7BIO 25 μM, STS 2 μM; 9 and 24 h
SH-SY5Y cells [8] = test: Nuclear morphology, bisBenzimide and propidium iodide staining; format: cell-based, human; details: 24 h; 10 or 25 μM
Protocol: Following double staining of DNA with BisBenzimide and propidium iodide, cells were examined by fluorescence microscopy. Thick arrows: apoptosis (nuclear fragmentation); thin arrows: secondary necrosis; arrow heads: pycnotic nuclei. Scale bar: 20 μm. Cell death characterization based on nuclear morphology was assessed by double staining with 0.05 μg/ml bisBenzimide and 25 μg/ml propidium iodide. Cell viability was determined by means of the MTS method. Both procedures have been previously described in detail (Ribas and Boix, 2004).

p21^Cip1 = test: p21Cip1 expression, Western blotting; details: SH-SY5Y cells, 12.5 μM, 12 h
SH-SY5Y cells [9] = test: SH-SY5Y cell survival, MTS reduction assay; format: cell-based, human
Protocol: SH-SY5Y, IMR-5 and IMR-32 human neuroblastoma cell lines were grown in DMEM medium from (Biowhittaker) plus 2 mM L-glutamine from Eurobio (Courtaboeuf, France) or DMEM already supplemented with 2 mM L-glutamine (Invitrogen, Barcelona, Spain), plus antibiotics and a 10% volume of FCS (Invitrogen, Cergy Pontoise, France or Barcelona, Spain). SH-SY5Y cell lines permanently transfected with pcDNA3/Bcl-2, pcDNA3/Bcl-XL and empty pcDNA3 vectors were grown like their untransfected counterparts. However, Geneticin (G-418) selection was maintained in the growing cultures before the terminal experiments (Ribas and Boix, 2004). In order to induce differentiation, SH-SY5Y cells were cultured on collagen coated plates and treated with 10 μM RA for five days.
as §2
The effects of each indirubin was tested, at a 25 μM final concentration, on the survival of the neuroblastoma SH-SY5Y cell line after 24 h or 48 h exposure.

[10] = tested on: effector caspases (DEVDase activity); test: Effector caspase activation in IMR-5, IMR-32, HL-60 and Jurkat cells; format: cell-based, human; details: 25 μM, 24 h
Protocol: FIG. 15. […] Every point is the mean±s.e. of three independent experiments with six independent measurements per experiment. […] Bar value is the mean±s.e. of 6 independent determinations.
as §1

CDK5/p25 = CDK5/p25 (Homo sapiens, UniProt Q00535); test: CDK5/p25 kinase assay; format: biochemical, mammalian
SH-SY5Y cells [11] = test: SH-SY5Y cell survival, MTS reduction assay; format: cell-based, human; remark: listed apart in the source
[12] = tested on: 5 L (AhR+/+) and BP8 (AhR−/−) cells; test: Cell cycle distribution of 5 L and BP8 cells (FACS); format: cell-based, mouse; details: 10 μM, 24 h
MDA-MB-231 cells = test: MDA-MB-231 cell proliferation and cell cycle distribution; format: cell-based, human
Protocol: MDA-MB-231 cells (derived from hormone-independent breast cancer) were cultured in DMEM supplemented with 10% FCS. For experiments, these cells were seeded in 24-well boxes or in 35 mm Petri dishes at appropriate densities (4.10^4 cells per well for cell growth experiments; 10^5 cells per dish for cell cycle analysis) and exposed to indirubins as indicated.

[13] = tested on: AhR-dependent expression of p27^Kip1; test: p27Kip1 expression in 5 L and BP8 hepatoma cells (Western blotting); format: cell-based, mouse; details: 10 μM, 24 h
Protocol: Actin Western blotting was used as a loading control. […] Average±s.e. of three determinations. […] Karlsruhe, Institute of Genetics, 76021 Karlsruhe, Germany). […] 6.8, 1 mM EDTA, 2% SDS.

[14] = tested on: 5 L (AhR+/+) and BP8 (AhR−/−) cells; details: 24 h

CDK5/p25, sequence (Q00535 whole entry, species assumed): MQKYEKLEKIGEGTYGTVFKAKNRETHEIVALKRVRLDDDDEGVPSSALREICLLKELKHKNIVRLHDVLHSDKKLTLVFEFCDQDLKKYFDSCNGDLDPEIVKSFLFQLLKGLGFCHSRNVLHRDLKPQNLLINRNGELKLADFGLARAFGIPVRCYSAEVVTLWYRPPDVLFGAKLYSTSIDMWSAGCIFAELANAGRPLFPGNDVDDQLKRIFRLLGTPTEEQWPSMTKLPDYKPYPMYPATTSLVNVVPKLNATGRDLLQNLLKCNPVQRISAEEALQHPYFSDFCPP
CDK5/p25, sequence (Q15078 99-307 partner limits assumed, species assumed): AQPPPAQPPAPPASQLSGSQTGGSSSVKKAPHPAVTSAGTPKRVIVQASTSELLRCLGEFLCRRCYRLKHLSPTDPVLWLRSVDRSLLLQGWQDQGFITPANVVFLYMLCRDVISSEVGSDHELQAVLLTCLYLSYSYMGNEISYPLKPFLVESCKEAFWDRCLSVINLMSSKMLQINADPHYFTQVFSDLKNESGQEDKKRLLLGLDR

Substance: (2′Z,3′E)-7-bromoindirubin-3′-oxime [7BIO]
- effect of cell differentiation on induced cell death [1]: negligible effect
- induction of p53 (p53): insignificant
- release of cytochome C from mitochondria (cytochome C release): negligible release
- cell death (LDH release) (SH-SY5Y cells [2]): most potent compound
- activation of caspase activity [3]: remained at the level of control
- dose-response curves, wild-type versus p53-deprived HCT-116 [4]: essentially the same
- DNA laddering (SH-SY5Y cells [5]): no ladder was observed
- induction of cell death [6]: induced cell death in the same range of concentrations
- protection by Bcl-2 / Bcl-XL overexpression [7]: neither Bcl-XL nor Bcl-2 overexpression provided any significant protection
- nuclear morphology / PI staining (SH-SY5Y cells [8]): numerous large, unfragmented pycnotic nuclei
- induction of p21^Cip1 overexpression (p21^Cip1): negligible effects
- time required to induce 70% cell death (SH-SY5Y cells [9]; 25 μM (FIG. 7)): ≤ 12 h
- time to almost complete cell death (SH-SY5Y cells [9]; 25 μM (FIG. 7)): ≤ 24 h
- effect of Q-VD-Oph on induced cell death (SH-SY5Y cells [9]; 25 μM indirubin, 48 h, 10 μM Q-VD-OPh (FIG. 10)): no effect
- cell death inducing activity, position 7 halogen / N1-methyl series (MTS) (SH-SY5Y cells [9]; 48 h (FIG. 4)): equipotent
- effector caspase activation (DEVDase activity) [10]: fell consistently below the background
- inhibitory activity on CDK5/p25 (in words) (CDK5/p25): marginal inhibitory activity
- inhibitory activity on CDK5/p25 (in words) (CDK5/p25; listed as 24): weak and gradually decreasing inhibitory activity
- sensitivity of cell death to the presence of the caspase inhibitor Q-VD-OPh (SH-SY5Y cells [11]; 20 μM Q-VD-OPh, MTS 43 h after addition (Table 5)): completely insensitive
- concentration required to reduce cell survival (MTS reduction) (SH-SY5Y cells [11]; 48 h, IO, 5BIO, 6BIO, 7BIO compared (FIG. 3A)): most potent compound
- cell cycle distribution of AhR−/− and AhR+/+ cells [12]: striking AhR-dependent accumulation in G0/G1
- cell cycle distribution (MDA-MB-231 cells; 24 h, FACS): accumulation in G2/M and reduction of G0/G1
- cell proliferation by direct counting (MDA-MB-231 cells; 48 h exposure): dose-dependent inhibition of cell proliferation
- reversibility of the effect by removal of compound (MDA-MB-231 cells; medium replaced at 48 h): poorly if at all reversible
- AhR-dependent expression of p27^Kip1 [13]: potently enhance
- dose-response curves of cell death in 5 L versus BP8 [14]: essentially the same
